Source: ChEMBL document CHEMBL3813623, “Novel approaches to map small molecule-target interactions” (Bioorg Med Chem, 2016)

Molecular target: T1, Bile acid receptor (Homo sapiens, UniProt Q96RI1)
T1 sequence (Q96RI1 whole entry): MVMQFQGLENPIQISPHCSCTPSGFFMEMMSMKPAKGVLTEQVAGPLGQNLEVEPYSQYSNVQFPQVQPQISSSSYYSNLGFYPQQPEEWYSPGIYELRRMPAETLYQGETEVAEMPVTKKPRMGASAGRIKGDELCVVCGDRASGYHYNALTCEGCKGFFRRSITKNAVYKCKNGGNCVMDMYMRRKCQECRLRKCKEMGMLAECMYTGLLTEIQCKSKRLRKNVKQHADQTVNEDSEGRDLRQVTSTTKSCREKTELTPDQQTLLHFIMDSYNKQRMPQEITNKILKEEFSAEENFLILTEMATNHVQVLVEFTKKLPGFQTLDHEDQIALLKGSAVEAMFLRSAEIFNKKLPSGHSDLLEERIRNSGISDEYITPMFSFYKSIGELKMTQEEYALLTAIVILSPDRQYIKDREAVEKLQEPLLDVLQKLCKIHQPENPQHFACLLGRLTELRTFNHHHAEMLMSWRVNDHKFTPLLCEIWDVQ
Assay: Agonist activity at farnesoid x receptor(unknown origin)

CNC(=O)O[C@@H](CC(C)C)c1nc([C@H]2OC(=O)/C(C)=C/C/C(C)=C/[C@@H](O)[C@@H](C)\C=C(C)/C=C(C)\C=C\[C@@H](O)[C@H](C)[C@H](OC)/C(C)=C/C=C/[C@@H]2C)cs1 [ARCHAZOLID A]
EC50: 200 nM
